Data from patent US10238648B2 (priority 2014, dated 2019).
Structures can show the parent of a compound that is named as a salt. Where two headings read alike, the source gives them in different places.

What was measured:
[1] = cited from earlier work
sedation in dogs = details: 4.5 mg intravenous dose reversed by 1.2 mg intravenous naloxone; cited from earlier work
[2] = oral dose x bioavailability
Source text: [formula] [formula] [formula] Dual Penetration Enhancer Formulations

[3] = Permeation of abuse-deterrent (naloxone) formulations through separating membrane and placebo opioid layer, 72 h diffusion study; assay type: in vitro ADME; details: from abuse deterrent layer NLX-2014-01-011
Method: The ability of abuse-deterrent layer formulations to migrate into the oxymorphone layer was investigated. A placebo oxymorphone layer was prepared and two abuse-deterrent formulations (NLX-2014-01-011 and NLX-2014-01-012) were tested with different separating layers. The appearance of both formulations was uniform and aesthetically pleasing. When assembled, no distinguishable layers could be observed and the layers themselves were inseparable. Patches of size 0.95 cm^2 patches were punched out from the release liner side of the assembled roll.
Insofar as NLX-2014-01-011 is concerned, while two cells did show permeation from the abuse deterrent layer, this was probably due to the abuse deterrent layer contacting the skin, as by the end of the experiment almost no permeation was observed.

## COc1ccc2c3c1O[C@H]1C(=O)CC[C@@]4(O)[C@@H](C2)N(C)CC[C@]314 [Oxycodone]
[1]; oral
  Bioavailability: 87%

## C=CCN1CC[C@]23c4c5ccc(O)c4O[C@H]2C(=O)CC[C@@]3(O)[C@H]1C5 [naloxone]
Sedation in dogs
  reversal of oxymorphone sedation: reversed

## CN1CC[C@]23c4c5ccc(O)c4O[C@H]2C(=O)CC[C@@]3(O)[C@H]1C5 [Oxymorphone]
[2]
  Dose after first pass effect: 4.0 mg/day

## COc1ccc2c3c1O[C@H]1C(=O)CC[C@H]4[C@@H](C2)N(C)CC[C@]314 [Hydrocodone]
[1]; po
  Bioavailability: 80%

## C=CCN1CC[C@]23c4c5ccc(O)c4O[C@H]2C(=O)CC[C@@]3(O)[C@H]1C5 [naloxone hydrochloride]
[3]
  permeability of the antagonist in the system: largely impermeable
